Among the data in patent US9242933B2 (AbbVie Deutschland GmbH & Co. KG, priority 2007, dated 2016) are EC50 values, retold here.

The term EC50 denotes the concentration giving half of the maximal effect.

The test addresses T1, human mGlu2 receptor (Homo sapiens, UniProt Q14416).
T1 construct: expressed in transfected cells; host or cells: HEK293
The test is described as follows: FLIPR intracellular Ca2+ assay, potentiation of glutamate response in HEK293 clone expressing mGlu2 receptor, rGLAST and Galpha16. Type of test: cell-based. To be noted: 1 μM glutamate added ten minutes after test compound, HEK293 cells with human mGlu2, rGLAST, Galpha16, read-out: EC50 values of potentiation effect to glutamate. The source says: The compounds of the present invention can be tested e.g. by evaluating intracellular Ca^2+ concentrations in cells permanently expressing human mGlu receptor, the rat glutamate transporter rGLAST and the Galpha16 subunit of the G-protein complex under standard conditions in a fluorometric imaging plate reader (FLIPR, Molecular Devices, Union City, Calif. 94587, USA) by measuring the response of the cells to a test compound in the absence of presence of glutamate. The FLIPR assay is a common functional assay to monitor native or recombinant Galphaq-coupled receptors, and native or recombinant receptors normally linked to other G-protein signalling cascades, which are coupled to calcium through co-expression of an alpha subunit of a promiscuous or chimeric G-protein. In the assay the increase of intracellular calcium is measured through a calcium-dependent fluorescent dye (e.g. Fluo-4 AM) in the FLIPR instrument.
For the purpose of the present study, a cell line permanently expressing a human mGlu receptor, such as the mGlu2 receptor, the rat glutamate transporter rGLAST and the GalphaG16 may be generated by transfection as described in the examples. For selection of a suitable cell clone and also the subsequent measurements, the selected clone the cells will be plated on suitable multiwell plates in a suitable medium (e.g. DMEM Glutamax (GIBCO #21885-025)/10% dialyzed FCS). Cells may be selected by gentamycin treatment as described in the examples. Cells will then be loaded with a suitable Ca^2+ sensitive fluorescence dye, e.g. with 2 μM Fluo-4 AM (Molecular Probes, F14201). Cells will then be washed with a suitable buffer (e.g. HEPES) and the thus treated plates will be measured in a fluorometric imaging plate reader (e.g. FLIPR, Molecular Devices, Union City, Calif. 94587, USA).
The compounds of the present invention were tested in the above-described FLIPR assay using the selected cell clone. Increased intracellular calcium levels were quantified following addition of test compound (agonism), as well as following addition of a submaximal concentration of glutamate (potentiation).
For the determination of the effect of the test compound by itself (agonism) or by increasing the response to a submaximal concentration (e.g. 1 μM) of glutamate (potentiation), the resulting signal is determined by subtraction of the background fluorescence from the maximal fluorescent peak height of the respective response. In the FLIPR instrument the compound is given to the cell and its fluorescence response quantified by the FLIPR instrument (agonism). The concentration at which the compound exerts half its maximal effect is named the ‘effective concentration 50’ or ‘EC50’. The maximal effect induced by the test substance is normalized to the maximal effect exerted by 100 μM glutamate (set at 100%).
After addition of the test compound to the plate, a submaximal concentration of glutamate (e.g. 1 μM glutamate) will be added. A potentiator enhances the response of the receptor to glutamate. The response to glutamate in the presence of test compound is quantified. The concentration at which the test compound is able to exert half its maximal potentiation effect to glutamate is named the ‘EC50’. The maximal response to the submaximal concentration of glutamate (e.g. 1 micromolar glutamate) in the presence of test compound is normalized to the maximal effect exerted by 100 micromolar glutamate (set at 100%). Least squares curve fitting with a four-parameter equation is then applied to the resulting dose-response curve to determine the resulting EC5O values (Graph Pad Prism).
For the purpose of the present study, a cell line permanently expressing the human mGlu2 receptor, the rat glutamate transporter rGLAST and the alpha subunit of G16 was generated by transfection. […]

T1 sequence (Q14416 19-872): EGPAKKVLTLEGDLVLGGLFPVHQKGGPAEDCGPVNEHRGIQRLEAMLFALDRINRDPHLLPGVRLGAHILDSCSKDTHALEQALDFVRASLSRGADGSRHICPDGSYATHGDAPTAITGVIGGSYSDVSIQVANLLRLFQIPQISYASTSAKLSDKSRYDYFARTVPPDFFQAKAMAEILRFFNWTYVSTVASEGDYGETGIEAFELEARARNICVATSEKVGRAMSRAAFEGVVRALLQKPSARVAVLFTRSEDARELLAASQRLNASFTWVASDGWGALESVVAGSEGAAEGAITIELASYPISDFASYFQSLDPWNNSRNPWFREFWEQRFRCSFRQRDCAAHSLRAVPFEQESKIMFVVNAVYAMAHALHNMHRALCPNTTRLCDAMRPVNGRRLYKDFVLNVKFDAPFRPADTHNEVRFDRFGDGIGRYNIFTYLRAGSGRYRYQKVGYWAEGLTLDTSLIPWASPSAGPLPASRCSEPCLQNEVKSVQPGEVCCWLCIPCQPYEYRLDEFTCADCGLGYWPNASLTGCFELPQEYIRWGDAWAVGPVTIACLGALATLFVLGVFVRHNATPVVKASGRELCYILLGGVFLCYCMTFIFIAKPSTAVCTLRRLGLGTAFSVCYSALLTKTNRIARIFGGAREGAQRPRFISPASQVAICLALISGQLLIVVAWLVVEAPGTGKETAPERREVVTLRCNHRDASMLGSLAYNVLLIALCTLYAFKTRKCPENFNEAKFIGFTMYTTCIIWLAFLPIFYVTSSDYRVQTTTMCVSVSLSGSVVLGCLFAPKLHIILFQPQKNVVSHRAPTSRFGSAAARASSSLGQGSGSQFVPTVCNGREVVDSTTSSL

With `CCCN1Cc2cc(NCc3c[nH]nc3-c3cccc(C(F)(F)F)c3)ccc2C1=O` [Example 578], the EC50 was under 1000 nM.

Regarding `CCCC(=O)c1ccc(NCc2ccncc2-c2ccccc2)cc1` [Example 524, 1-{4-[(3-Phenyl-pyridin-4-ylmethyl)-amino]-phenyl}-butan-1-one], the EC50 was 1000 to 10000 nM. With `CCCC(=O)c1ccc(NCc2nc3ccccc3n2C)cc1` [Example 226, 1-{4-[(1-Methyl-1H-benzoimidazol-2-ylmethyl)-amino]-phenyl}-butan-1-one] the figure was 1000 to 10000 nM; with `CCCN1Cc2cc(OCc3c[nH]nc3-c3cccc(F)c3)ccc2C1=O` [Example 536, 5-[3-(3-Fluorophenyl)-1H-pyrazol-4-ylmethoxy]-2-propyl-2,3-dihydro-isoindol-1-one], under 1000 nM. With `O=C1c2ccc(OCc3c[nH]nc3-c3cccc(F)c3)cc2CN1CCC(F)(F)F` [Example 541, 5-[3-(3-Fluorophenyl)-1H-pyrazol-4-ylmethoxy]-2-(3,3,3-trifluoro-propyl)-2,3-dihydro-isoindol-1-one] the figure was under 1000 nM; with `O=C1c2ccc(OCc3c[nH]nc3-c3ccccc3)cc2CN1CCCC(F)(F)F` [Example 553, 5-(3-Phenyl-1H-pyrazol-4-ylmethoxy)-2-(4,4,4-trifluoro-butyl)-2,3-dihydro-isoindol-1-one], under 1000 nM. With `CCCC(=O)c1ccc(NCc2n[nH]nc2-c2ccccc2)cc1` [Example 519] the figure was 1000 to 10000 nM; with `CCCC(=O)c1cccc(NCc2cccnc2)c1` [Example 386, 1-{3-[(Pyridin-3-ylmethyl)-amino]-phenyl}-butan-1-one], 1000 to 10000 nM. In the case of `O=C1c2ccc(OCc3c[nH]nc3-c3ccc(C(F)(F)F)cc3)cc2CN1CCCC(F)(F)F` [Example 552, 2-(4,4,4-Trifluoro-butyl)-5-[3-(4-trifluoromethyl-phenyl)-1H-pyrazol-4-ylmethoxy]-2,3-dihydro-isoindol-1-one], the EC50 was under 1000 nM. Under `O=C1c2ccc(OCc3c[nH]nc3-c3cccc(C(F)(F)F)c3)cc2CN1CC(F)(F)F` [Example 569, 2-(2,2,2-Trifluoro-ethyl)-5-[3-(3-trifluoromethyl-phenyl)-1H-pyrazol-4-ylmethoxy]-2,3-dihydro-isoindol-1-one] stands under 1000 nM; under `Cc1cc(C)nc(NCc2c[nH]nc2-c2ccc(C(F)(F)F)cc2)c1` [Example 341, (4,6-Dimethyl-pyridin-2-yl)-[3-(4-trifluoromethyl-phenyl)-1H-pyrazol-4-ylmethyl]-amine], 1000 to 10000 nM. Regarding `O=C1c2ccc(OCc3c[nH]nc3-c3ccc(C(F)(F)F)cc3)cc2CN1C1CCCC1` [Example 588, 2-Cyclopentyl-5-[3-(4-trifluoromethyl-phenyl)-1H-pyrazol-4-ylmethoxy]-2,3-dihydro-isoindol-1-one], the EC50 is under 1000 nM. Under `CCCC(=O)c1ccc(NCc2c(CSc3ccccc3)nn(C)c2Cl)cc1` [Example 52, 1-(4-{[5-Chloro-1-methyl-3-(phenylthiomethyl)-1H-pyrazol-4-ylmethyl]amino}phenyl)butan-1-one] stands 1000 to 10000 nM; under `O=C(c1ccccc1)c1ccc(NCc2c[nH]nc2-c2ccc(C(F)(F)F)cc2)cc1` [Example 504, Phenyl-(4-{[3-(4-trifluoromethyl-phenyl)-1H-pyrazol-4-ylmethyl]-amino}-phenyl)-methanone], 1000 to 10000 nM. Under `CN(C)S(=O)(=O)c1cccc(NCc2c[nH]nc2-c2ccc(Cl)cc2)c1` [Example 430, 3-{[3-(4-Chloro-phenyl)-1H-pyrazol-4-ylmethyl]-amino}-N,N-dimethyl-benzenesulfonamide] stands 1000 to 10000 nM; under `CCCC(=O)c1ccc(NCc2cccnc2)cc1` [Example 16, 1-{4-[(Pyridin-3-ylmethyl)amino]phenyl}butan-1-one], 1000 to 10000 nM.

With `CCCC(=O)c1ccc(NCc2c(C)nn(-c3ccccc3)c2C)cc1` [Example 56, 1-{4-[(3,5-Dimethyl-1-phenyl-1H-pyrazol-4-ylmethyl)amino]phenyl}butan-1-one], the EC50 lay within 1000 to 10000 nM.

For the molecule `CCCOc1ncccc1CNc1ccc(C(=O)CCC)cc1` [Example 311, 1-{4-[(2-Propoxy-pyridin-3-ylmethyl)-amino]-phenyl}-butan-1-one], the EC50 fell in the range of 1000 to 10000 nM. Under `CN1Cc2cc(OCc3c[nH]nc3-c3ccc(C(F)(F)F)cc3)ccc2C1=O` [Example 573, 2-Methyl-5-[3-(4-trifluoromethyl-phenyl)-1H-pyrazol-4-ylmethoxy]-2,3-dihydro-isoindol-1-one] stands under 1000 nM; under `CCCC(=O)c1ccc(NCc2c[nH]nc2-c2ccc(Cl)cc2)cc1OC(CC)CC` [Example 437, 1-[4-{[3-(4-Chloro-phenyl)-1H-pyrazol-4-ylmethyl]-amino}-2-(1-ethyl-propoxy)-phenyl]-butan-1-one], 1000 to 10000 nM.

In the case of `CCCC(=O)c1ccc(NCc2ccnn2-c2ccccc2)cc1` [Example 57, 1-{4-[(2-Phenyl-2H-pyrazol-3-ylmethyl)amino]phenyl}butan-1-one], the EC50 lay within 1000 to 10000 nM. With `CC(=O)c1ccc(NCc2c[nH]nc2-c2ccc(Cl)cc2)c(C)c1O` [Example 440, 1-(4-{[3-(4-Chloro-phenyl)-1H-pyrazol-4-ylmethyl]-amino}-2-hydroxy-3-methyl-phenyl)-ethanone] the figure was under 1000 nM; with `CCCCN1Cc2cc(OCc3c[nH]nc3-c3ccc(Cl)cc3)ccc2C1=O` [Example 546, 2-Butyl-5-[3-(4-chloro-phenyl)-1H-pyrazol-4-ylmethoxy]-2,3-dihydro-isoindol-1-one], under 1000 nM. With `CC(=O)c1ccc(OCc2c[nH]nc2-c2ccc(C(F)(F)F)cc2)c(C)c1` [Example 488, 1-{3-Methyl-4-[3-(4-trifluoromethyl-phenyl)-1H-pyrazol-4-ylmethoxy]-phenyl}-ethanone] the figure was 1000 to 10000 nM; with `CCCC(=O)c1ccc(NCc2c(C)nn(C)c2Oc2cccc(Cl)c2)cc1` [Example 50, 1-(4-{[5-(3-Chlorophenoxy)-1,3-dimethyl-1H-pyrazol-4-ylmethyl]amino}phenyl)butan-1-one], 1000 to 10000 nM; with `FC(F)(F)c1ccc(-c2n[nH]cc2CNc2ccc(Cl)cn2)cc1` [Example 340, (5-Chloro-pyridin-2-yl)-[3-(4-trifluoromethyl-phenyl)-1H-pyrazol-4-ylmethyl]-amine], 1000 to 10000 nM. Under `CC(C)(C)c1n[nH]cc1CN(c1cccc(OC2CCCC2)c1)S(=O)(=O)CC(F)(F)F` [Example 458, 2,2,2-Trifluoro-ethanesulfonic acid (3-tert-butyl-1H-pyrazol-4-ylmethyl)-(3-cyclopentyloxy-phenyl)-amide] stands 1000 to 10000 nM. With `COc1ccccc1Oc1ccc(NCc2c[nH]nc2-c2ccc(C(F)(F)F)cc2)cc1` [Example 83, [4-(2-Methoxy-phenoxy)-phenyl]-[3-(4-trifluoromethylphenyl)-1H-pyrazol-4-ylmethyl]-amine], the EC50 is under 1000 nM. With `CCC(=O)c1ccc(OCc2c[nH]nc2-c2ccc(C(F)(F)F)cc2)cc1` [Example 489, 1-{4-[3-(4-Trifluoromethyl-phenyl)-1H-pyrazol-4-ylmethoxy]-phenyl}-propan-1-one] the figure was under 1000 nM. With `CCC(C)Oc1cccc(N(Cc2c[nH]nc2-c2ccc(C(F)(F)F)cc2)S(=O)(=O)CC(F)(F)F)c1` (stereo not shown) [Example 456, 2,2,2-Trifluoro-ethanesulfonic acid (3-sec-butoxy-phenyl)-[3-(4-trifluoromethyl-phenyl)-1H-pyrazol-4-ylmethyl]-amide], the EC50 is 1000 to 10000 nM. With “2-Propyl-6-{[3-(4-trifluoromethyl-phenyl)-1H-pyrazol-4-ylmethyl]-amino}-2,3-dihydro-isoquinolin-1-one [Example 584]” the figure was under 1000 nM.
